The text below walks through data of ChEMBL document CHEMBL1201862, “PubChem BioAssay data set” (2004).

Some test systems named below: SK-MEL-5; SF-295; CAKI-1; A549; LOX IMVI; HT-29; DU-145; RPMI-8226; COLO 205; OVCAR-8; SR; HOP-92; Hs-578T; K562; HL-60; SK-OV-3; MCF7; UO-31; KM12; Malme-3M.
Holding throughout (assay): NCI tumour cell line growth inhibition, 48 h

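The compound was tested at five concentrations on cells cultured in 96-well plates, with a 48-hour exposure period. At the GI50, growth is halved.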 Active and inactive are the calls of the source. Cut-off read from the data, not from the text of the source: active = GI50 up to about 1.1 µM and inactive = higher.

On to `Cc1ccc(S(=O)(=O)n2cc(C=O)c(-c3cn(S(=O)(=O)c4ccc(C)cc4)cc3-c3cn(S(=O)(=O)c4ccc(C)cc4)cc3C=O)c2)cc1`, for which the GI50 was 41.6 µM (inactive) in the assay with SK-MEL-5; 42.9 µM (inactive) in the assay with SF-295; > 100 µM (inactive) in the assay on CAKI-1; 72.4 µM (inactive) in the assay on A549; 21.9 µM (inactive) in the assay with LOX IMVI; 36.2 µM (inactive) in the assay on HT-29. For the same compound, the GI50 is 69.3 µM (inactive) with DU-145; 8.36 µM (inactive) in the assay on RPMI-8226; 75.2 µM (inactive) with COLO 205; 37.2 µM (inactive) with OVCAR-8; 13.6 µM (inactive) in the assay with SR; 45.4 µM (inactive) with HOP-92. The GI50 in the assay on Hs-578T is > 100 µM (inactive); with K562, 24.3 µM (inactive); with HL-60 it was 25.4 µM (inactive); in the assay on SK-OV-3, > 100 µM (inactive); with MCF7, 27.4 µM (inactive); in the assay with UO-31 it was 52.6 µM (inactive). For the same compound, the GI50 in the assay on KM12 was 50.7 µM (inactive); with Malme-3M, 24.3 µM (inactive).
On to `N=c1nc(N)c2cc3c(N)nc(=N)c3cc12`, for which the GI50 in the assay on SK-MEL-5 was 60.8 µM (inactive); with SF-295 it was 14.9 µM (inactive); in the assay on CAKI-1, 8.38 µM (inactive); in the assay with A549, > 100 µM (inactive); in the assay with LOX IMVI, 2.49 µM (inactive); in the assay on HT-29 it was 82.2 µM (inactive). Further, the GI50 with DU-145 is 30.5 µM (inactive); in the assay on RPMI-8226, 3.13 µM (inactive); with COLO 205, > 91.8 µM (inactive); with OVCAR-8, 4.35 µM (inactive); in the assay with SR, 3.83 µM (inactive); in the assay on HOP-92 it was 3.94 µM (inactive). For the same compound, the GI50 was 36.1 µM (inactive) in the assay with Hs-578T; 2.2 µM (inactive) in the assay with K562; 2.02 µM (inactive) in the assay on HL-60; 28.6 µM (inactive) in the assay with SK-OV-3; 33.5 µM (inactive) in the assay with MCF7; 7.5 µM (inactive) in the assay on UO-31. Further, the GI50 in the assay on KM12 is 72.9 µM (inactive); with Malme-3M it was 2.95 µM (inactive).
With `CN(C)Cc1cc(/N=N/c2cccc(Cl)c2)ccc1O`, the GI50 is 3.4 µM (inactive) in the assay with SK-MEL-5; 14.7 µM (inactive) in the assay on SF-295; 21.2 µM (inactive) in the assay on CAKI-1; 15.5 µM (inactive) with A549; 4.16 µM (inactive) in the assay with LOX IMVI; 17 µM (inactive) in the assay on HT-29. In addition, the GI50 with DU-145 is 6.9 µM (inactive); in the assay on RPMI-8226, 18.8 µM (inactive); in the assay with COLO 205, 19.5 µM (inactive); in the assay on OVCAR-8 it was 14.9 µM (inactive); with SR, 20.1 µM (inactive); with HOP-92, 6.78 µM (inactive). For the same compound, the GI50 with Hs-578T was 11.4 µM (inactive); in the assay on K562, 3.27 µM (inactive); in the assay on HL-60, 17.3 µM (inactive); in the assay with SK-OV-3, 19.9 µM (inactive); in the assay on MCF7, 14.8 µM (inactive); in the assay on UO-31, 8.32 µM (inactive). Besides, the GI50 in the assay on KM12 was 7.08 µM (inactive); with Malme-3M it was 16.7 µM (inactive).
On to `O=C1OC(c2ccc([N+](=O)[O-])cc2)=N/C1=C\c1ccc(O)cc1`, for which the GI50 in the assay with SK-MEL-5, in the assay on SF-295, with CAKI-1, in the assay with A549, with LOX IMVI and in the assay on HT-29 was > 100 µM (inactive) each time. Further, the GI50 in the assay on DU-145, with RPMI-8226, with COLO 205, in the assay with OVCAR-8, with SR and in the assay on HOP-92 was > 100 µM (inactive) in each case. Moreover, the GI50 in the assay with Hs-578T, in the assay with K562, with HL-60, in the assay with SK-OV-3, in the assay on MCF7 and in the assay with KM12 was > 100 µM (inactive) in each case. In addition, in the assay with Malme-3M, the GI50 is > 100 µM (inactive).
Consider `Cc1cc(N(CCOS(C)(=O)=O)CCOS(C)(=O)=O)ccc1/C=N/c1ccc(-c2csc(-c3ccc(Br)cc3)n2)cc1`, for which the GI50 in the assay with SK-MEL-5 is 14.2 µM (inactive); in the assay with SF-295 it was 2.95 µM (inactive); in the assay with CAKI-1, 0.285 µM (active); with A549, 2.65 µM (inactive); with LOX IMVI it was 9.18 µM (inactive); in the assay on HT-29 it was 7.06 µM (inactive). For the same compound, the GI50 in the assay on DU-145 is 1.91 µM (inactive); in the assay on RPMI-8226 it was 16 µM (inactive); with COLO 205, 1.22 µM (inactive); in the assay on OVCAR-8, 12.9 µM (inactive); in the assay with SR, 1.7 µM (inactive); in the assay on HOP-92 it was 14.4 µM (inactive). Further, the GI50 in the assay on Hs-578T was 35.6 µM (inactive); in the assay on K562, 12.2 µM (inactive); with HL-60, 2.58 µM (inactive); in the assay with SK-OV-3, 1.98 µM (inactive); in the assay with MCF7 it was 1.02 µM (active); in the assay on UO-31, 10.2 µM (inactive). The GI50 was 13.3 µM (inactive) in the assay with KM12 and 21.9 µM (inactive) in the assay with Malme-3M.
For the compound `COc1cccc(/C=C2\S/C(=N/Nc3nc(-c4ccc([N+](=O)[O-])cc4)cs3)NC2=O)c1O`, the GI50 in the assay with SK-MEL-5 was 12.2 µM (inactive); in the assay on SF-295, 16.9 µM (inactive); in the assay with CAKI-1 it was 25 µM (inactive); in the assay on A549, 15.9 µM (inactive); in the assay on LOX IMVI, 3.25 µM (inactive); in the assay on HT-29, 21.9 µM (inactive). Moreover, the GI50 in the assay on DU-145 was 21.9 µM (inactive); in the assay with RPMI-8226 it was 10.4 µM (inactive); with COLO 205, 16.4 µM (inactive); in the assay with OVCAR-8 it was 13.6 µM (inactive); in the assay with SR, 12 µM (inactive); in the assay with HOP-92, 10.3 µM (inactive). The GI50 is 12.3 µM (inactive) with Hs-578T; 4.45 µM (inactive) in the assay with HL-60; 26.9 µM (inactive) in the assay on SK-OV-3; 16.6 µM (inactive) in the assay on MCF7; 12.5 µM (inactive) in the assay with UO-31; 13.2 µM (inactive) in the assay with KM12. In the assay on Malme-3M, the GI50 was 20.5 µM (inactive).
On to `O=C1NC(=O)[C@H]2C3C=CC([C@@H]12)[C@@H]1C(=O)NC(=O)[C@H]31`, for which the GI50 in the assay on SK-MEL-5, in the assay on SF-295, with CAKI-1, in the assay on A549, in the assay with LOX IMVI and in the assay with DU-145 was > 100 µM (inactive) each time. In addition, the GI50 with RPMI-8226, in the assay on COLO 205, in the assay with OVCAR-8, in the assay on SR, in the assay with HOP-92 and in the assay with Hs-578T was > 100 µM (inactive) in each case. Further, the GI50 is > 100 µM (inactive) in the assay on K562; > 100 µM (inactive) in the assay on HL-60; 97.1 µM (inactive) with MCF7; > 100 µM (inactive) in the assay on UO-31; > 100 µM (inactive) in the assay with Malme-3M.
With `O=C(O)c1cc2ccccc2c(/N=N/c2ccc(S(=O)(=O)O)cc2)c1O`, the GI50 with SK-MEL-5, in the assay with SF-295, with CAKI-1, in the assay on A549, with HT-29 and in the assay on DU-145 was > 100 µM (inactive) throughout. Moreover, the GI50 with RPMI-8226, with COLO 205, with OVCAR-8, in the assay with SR, in the assay on HOP-92 and with Hs-578T was > 100 µM (inactive) in each case. For the same compound, the GI50 was > 100 µM (inactive) with K562; > 100 µM (inactive) in the assay on HL-60; > 100 µM (inactive) in the assay on SK-OV-3; > 100 µM (inactive) in the assay on MCF7; 60.3 µM (inactive) in the assay on UO-31; > 100 µM (inactive) in the assay with KM12. Moreover, the GI50 in the assay on Malme-3M was > 100 µM (inactive).
Take `CSc1ccc(-c2cc(-c3nc4ccccc4[nH]3)nc(N)c2C#N)cc1`: the GI50 with SK-MEL-5 is 13.3 µM (inactive); with SF-295, 21.9 µM (inactive); with CAKI-1 it was 18.3 µM (inactive); in the assay with A549, 23.1 µM (inactive); with LOX IMVI it was 18.2 µM (inactive); in the assay with HT-29 it was 21.9 µM (inactive). Besides, the GI50 in the assay on DU-145 was 17.4 µM (inactive); in the assay on RPMI-8226, 21.4 µM (inactive); in the assay with COLO 205, 15.9 µM (inactive); in the assay with OVCAR-8, 31.6 µM (inactive); in the assay on SR, 13.1 µM (inactive); in the assay with HOP-92, 8.55 µM (inactive). The GI50 in the assay with Hs-578T is 24.7 µM (inactive); in the assay on K562 it was 18.4 µM (inactive); in the assay on HL-60, 20 µM (inactive); in the assay with SK-OV-3, 33 µM (inactive); with MCF7, 15.6 µM (inactive); in the assay with KM12, 21 µM (inactive). The GI50 in the assay on Malme-3M is 19.4 µM (inactive).
Turning to `CN(C)CCCNC(=O)c1cc(NC(=O)c2cc(NC(=O)c3cc(NC(=O)CCCn4ccc(CO)c4CO)cn3C)cn2C)cn1C`, the GI50 was 2.71 µM (inactive) in the assay on SK-MEL-5; > 100 µM (inactive) with CAKI-1; 14.5 µM (inactive) in the assay with A549; 4.28 µM (inactive) in the assay with LOX IMVI; 3.94 µM (inactive) in the assay on DU-145; 11.2 µM (inactive) in the assay with COLO 205. Also, the GI50 with SR is 6.5 µM (inactive); in the assay with HOP-92, 13 µM (inactive); in the assay with Hs-578T, 22.1 µM (inactive); with K562 it was 3.78 µM (inactive); in the assay on HL-60, 3.1 µM (inactive); with SK-OV-3, 1.06 µM (active). Moreover, the GI50 in the assay on MCF7 was 3.27 µM (inactive); in the assay on UO-31, > 100 µM (inactive); in the assay with KM12 it was > 100 µM (inactive); with Malme-3M it was 14.5 µM (inactive).
